# Where a SMILES comes first, the peptide text is derived from it. [ ]: non-standard residue; d: D form. pS = N[C@@H](COP(=O)(O)O)C(=O)O
# Experiments:
# Ess1 [1] = molecular target: T1, Ess1 (Saccharomyces cerevisiae, UniProt P22696, R8S); test: Competition fluorescence anisotropy (unlabeled CTD peptides vs. FITC-1R-CTD for Ess1 binding); details: for Normalized Anisotropy: competition vs FITC-1R-CTD, mean
# T1 construct: Full-length Ess1 or Ess1 C120S plasmid was used to transform E. coli cells; 6xHis (cleaved yes); made in house; host or cells: E. coli Rosetta II (DE3) pLysS, isotope-labeled M9 minimal media
# T1 sequence (P22696 whole entry R8S): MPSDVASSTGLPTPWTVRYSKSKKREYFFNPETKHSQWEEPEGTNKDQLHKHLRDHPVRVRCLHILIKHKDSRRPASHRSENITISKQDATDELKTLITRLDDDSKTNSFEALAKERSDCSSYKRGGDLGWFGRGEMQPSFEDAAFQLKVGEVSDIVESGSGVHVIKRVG
# Description: A 1 repeat CTD peptide labeled with FITC at its N-terminus was used as a probe (FITC-1R, Table 2). […] Each point represents an average (±SD) of n = 2 or 3 from independent experiments.
# Fluorescence anisotropy measurements were performed in a Hidex Sense microplate reader using an excitation wavelength of 485 nm and an emission wavelength of 535 nm. Measurements were performed in 20 mM Tris pH 8.0, 3 mM TCEP buffer. […] Competition data was used to calculate IC50 values to compare the affinity differences between all five substrates (Eq. (1)).1 Competitionmodel:f1=min+max−min/1+x/IC50∧−Hillslope
# Ess1 [2] = molecular target: T1, Ess1; test: NMR 1H-15N HSQC titration, Kd determination (single-site model); assay type: binding
# Description: Binding was monitored by recording ^1H–^15N HSQC spectra at different peptide to protein ratios. For each backbone amide, we assumed that the CSP was a weighted average between the free (Δδ = 0) and ligand-bound (Δδ = Δδbound) states, such that Δδ = Δδbound * [PL]/[Ptotal]. Here, [PL] and [Ptotal] represent the ligand-bound protein concentration, and Ptotal is the total protein concentration of Ess1. The CSP for each amide was calculated using the equation CSP=ΔδH^2+ΔδN/5^2 where ΔδH and ΔδN represent the change in chemical shift in the ^1H and ^15N dimensions, such that Δδ = 0 when calculating the CSP for the reference spectrum (in the absence of ligand). To obtain the dissociation binding constant, Kd, we used the single-site binding equation, PL=(([Ptotal]+[Ltotal]+Kd)−([Ptotal]+[Ltotal]+Kd)^2−4*[Ptotal]*[Ltotal])/2 , where [Ptotal] and [Ltotal] are total protein (Ess1) and ligand (CTD peptide) concentrations, respectively. Fitting was performed using an in-house Matlab script. […] Errors represent standard deviation of residue-specific Kd values.
# [3] = molecular target: 1R CTD peptide CTD 1 repeat (Saccharomyces cerevisiae) (UniProt P04050); details: cited from earlier work
# 1R CTD peptide CTD 1 repeat (Saccharomyces cerevisiae), sequence (P04050 whole entry, looked up, tested part not stated): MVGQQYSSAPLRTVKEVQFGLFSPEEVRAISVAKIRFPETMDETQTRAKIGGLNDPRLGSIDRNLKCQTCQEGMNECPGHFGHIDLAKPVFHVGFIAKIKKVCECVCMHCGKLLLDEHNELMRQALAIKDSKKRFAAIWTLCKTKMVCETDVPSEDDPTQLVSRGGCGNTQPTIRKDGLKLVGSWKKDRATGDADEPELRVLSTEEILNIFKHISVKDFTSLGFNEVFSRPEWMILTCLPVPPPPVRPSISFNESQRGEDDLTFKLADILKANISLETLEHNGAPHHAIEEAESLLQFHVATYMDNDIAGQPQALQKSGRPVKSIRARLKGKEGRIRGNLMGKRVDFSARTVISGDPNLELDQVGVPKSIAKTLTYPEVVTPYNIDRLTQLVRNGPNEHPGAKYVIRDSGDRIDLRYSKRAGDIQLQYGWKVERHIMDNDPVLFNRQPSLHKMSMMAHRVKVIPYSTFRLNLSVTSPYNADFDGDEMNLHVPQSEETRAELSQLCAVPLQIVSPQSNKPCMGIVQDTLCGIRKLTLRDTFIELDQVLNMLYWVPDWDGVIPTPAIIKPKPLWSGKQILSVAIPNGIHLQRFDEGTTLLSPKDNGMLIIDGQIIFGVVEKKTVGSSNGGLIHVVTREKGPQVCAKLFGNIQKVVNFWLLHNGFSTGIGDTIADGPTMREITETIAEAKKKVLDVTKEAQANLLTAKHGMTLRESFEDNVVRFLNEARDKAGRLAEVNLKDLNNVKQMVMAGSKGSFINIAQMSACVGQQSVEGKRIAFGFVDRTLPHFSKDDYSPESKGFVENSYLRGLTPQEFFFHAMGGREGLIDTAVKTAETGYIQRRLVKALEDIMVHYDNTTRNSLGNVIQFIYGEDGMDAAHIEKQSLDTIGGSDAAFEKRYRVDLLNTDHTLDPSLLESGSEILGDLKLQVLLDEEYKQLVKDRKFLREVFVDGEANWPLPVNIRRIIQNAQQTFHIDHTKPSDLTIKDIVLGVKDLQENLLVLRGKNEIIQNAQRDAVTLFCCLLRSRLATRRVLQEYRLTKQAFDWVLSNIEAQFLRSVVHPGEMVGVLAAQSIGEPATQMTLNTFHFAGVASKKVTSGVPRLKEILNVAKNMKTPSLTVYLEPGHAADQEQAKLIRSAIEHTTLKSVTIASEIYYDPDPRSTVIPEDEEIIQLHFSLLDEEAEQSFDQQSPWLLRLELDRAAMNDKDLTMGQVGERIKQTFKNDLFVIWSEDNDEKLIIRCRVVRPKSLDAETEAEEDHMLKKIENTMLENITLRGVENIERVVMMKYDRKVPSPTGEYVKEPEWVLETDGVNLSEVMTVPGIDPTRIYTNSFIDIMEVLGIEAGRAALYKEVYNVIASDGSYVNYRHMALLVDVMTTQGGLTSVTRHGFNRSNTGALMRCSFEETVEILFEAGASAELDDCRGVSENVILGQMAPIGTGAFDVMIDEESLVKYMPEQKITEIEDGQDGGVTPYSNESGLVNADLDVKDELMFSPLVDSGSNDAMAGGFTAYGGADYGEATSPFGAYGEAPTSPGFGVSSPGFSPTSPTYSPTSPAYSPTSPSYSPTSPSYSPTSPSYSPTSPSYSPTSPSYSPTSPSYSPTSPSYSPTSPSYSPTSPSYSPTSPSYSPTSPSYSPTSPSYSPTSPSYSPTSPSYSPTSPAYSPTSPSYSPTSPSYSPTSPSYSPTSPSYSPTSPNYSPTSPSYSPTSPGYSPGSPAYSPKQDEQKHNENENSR
# [4] = residue-specific, 1 to 1 binding fit of NMR titration
# Ess1 (from UniProt P22696), sequence (P22696 whole entry): as the sequence (P22696 whole entry R8S) above, with S8R counted along it
compound,measurement,setting,value
CC(=O)N[C@@H](Cc1ccc(O)cc1)C(=O)N[C@@H](CO)C(=O)N1CCC[C@H]1C(=O)N[C@H](C(=O)N[C@@H](COP(=O)(O)O)C(=O)N1CCC[C@H]1C(=O)N[C@@H](CO)C(=O)N[C@@H](Cc1ccc(O)cc1)C(=O)N[C@@H](CO)C(=O)N1CCC[C@H]1C(=O)N[C@H](C(=O)N[C@@H](COP(=O)(O)O)C(=O)N1CCC[C@H]1C(=O)N[C@@H](CO)C(N)=O)[C@@H](C)O)[C@@H](C)O [2R],IC50,Ess1 [1],59 µM
same,Normalized Anisotropy,Ess1 [1]; [2R CTD] 29.25 μM,0.8399
same,Normalized Anisotropy,Ess1 [1]; [2R CTD] 58.5 μM,0.6905
same,Normalized Anisotropy,Ess1 [1]; [2R CTD] 234 μM,0.4873
CC(=O)N[C@@H](C)C(=O)N[C@@H](CO)C(=O)N[C@@H](Cc1ccc(O)cc1)C(=O)N[C@@H](CO)C(=O)N1CCC[C@H]1C(=O)N[C@H](C(=O)N[C@@H](COP(=O)(O)O)C(=O)N1CCC[C@H]1C(=O)N[C@@H](CO)C(=O)N[C@@H](Cc1ccc(O)cc1)C(=O)N[C@@H](CO)C(N)=O)[C@@H](C)O [1R] (Ac-ASYSPT[pS]PSYS-NH2),Kd,Ess1 [2],155 µM
same,"Kd, Ess1 residue 16",Ess1 [2]; [4],119.2 µM
same,"Kd, Ess1 residue 17",Ess1 [2]; [4],111.1 µM
same,"Kd, Ess1 residue 18",Ess1 [2]; [4],151.9 µM
same,"Kd, Ess1 residue 19",Ess1 [2]; [4],153.7 µM
same,"Kd, Ess1 residue 23",Ess1 [2]; [4],148.5 µM
same,"Kd, Ess1 residue 25",Ess1 [2]; [4],124.8 µM
same,"Kd, Ess1 residue 26",Ess1 [2]; [4],196.0 µM
same,"Kd, Ess1 residue 27",Ess1 [2]; [4],128.9 µM
same,"Kd, Ess1 residue 28",Ess1 [2]; [4],161.3 µM
same,"Kd, Ess1 residue 29",Ess1 [2]; [4],141.4 µM
same,"Kd, Ess1 residue 30",Ess1 [2]; [4],103.1 µM
same,"Kd, Ess1 residue 34",Ess1 [2]; [4],233.3 µM
same,"Kd, Ess1 residue 35",Ess1 [2]; [4],274.5 µM
same,"Kd, Ess1 residue 37",Ess1 [2]; [4],153.0 µM
same,"Kd, Ess1 residue 38",Ess1 [2]; [4],102.8 µM
same,"Kd, Ess1 residue 39",Ess1 [2]; [4],153.9 µM
same,"Kd, Ess1 residue 40",Ess1 [2]; [4],157.5 µM
same,"Kd, Ess1 residue 48",Ess1 [2]; [4],156.8 µM
same,"Kd, Ess1 residue 49",Ess1 [2]; [4],216.2 µM
same,"Kd, Ess1 residue 52",Ess1 [2]; [4],132.6 µM
same,"Kd, Ess1 residue 58",Ess1 [2]; [4],96.2 µM
same,"Kd, Ess1 residue 59",Ess1 [2]; [4],156.4 µM
same,"Kd, Ess1 residue 64",Ess1 [2]; [4],134.1 µM
same,"Kd, Ess1 residue 70",Ess1 [2]; [4],111.0 µM
same,"Kd, Ess1 residue 73",Ess1 [2]; [4],89.4 µM
same,"Kd, Ess1 residue 84",Ess1 [2]; [4],119.4 µM
same,"Kd, Ess1 residue 87",Ess1 [2]; [4],180.8 µM
same,"Kd, Ess1 residue 123",Ess1 [2]; [4],227.8 µM
same,"Kd, Ess1 residue 130",Ess1 [2]; [4],175.2 µM
same,"Kd, Ess1 residue 131",Ess1 [2]; [4],207.7 µM
same,"Kd, Ess1 residue 133",Ess1 [2]; [4],166.8 µM
same,"Kd, Ess1 residue 137",Ess1 [2]; [4],128.3 µM
same,"Kd, Ess1 residue 145",Ess1 [2]; [4],205.8 µM
same,"Kd, Ess1 residue 146",Ess1 [2]; [4],235.1 µM
same,"Kd, Ess1 residue 149",Ess1 [2]; [4],100.8 µM
same,"Kd, Ess1 residue 150",Ess1 [2]; [4],113.4 µM
same,"Kd, Ess1 residue 157",Ess1 [2]; [4],151.8 µM
same,"Kd, Ess1 residue 158",Ess1 [2]; [4],122.1 µM
same,"Kd, Ess1 residue 159",Ess1 [2]; [4],176.3 µM
same,"Kd, Ess1 residue 162",Ess1 [2]; [4],71.8 µM
same,"Kd, Ess1 residue 164",Ess1 [2]; [4],188.7 µM
same,IC50,Ess1 [1],259 ± 33 µM
same,Normalized Anisotropy,Ess1 [1]; [1R CTD] 21 μM,0.9587
same,Normalized Anisotropy,Ess1 [1]; [1R CTD] 42 μM,0.9533
same,Normalized Anisotropy,Ess1 [1]; [1R CTD] 84 μM,0.9581
same,Normalized Anisotropy,Ess1 [1]; [1R CTD] 280 μM,0.8033
same,Normalized Anisotropy,Ess1 [1]; [1R CTD] 336 μM,0.7637
same,Normalized Anisotropy,Ess1 [1]; [1R CTD] 560 μM,0.6982
Ess1 (from UniProt P22696),Kd,[3],60 µM

# Reference: article PMC7994582 (Communications Biology, 2021)
